Results published in patent publication EP2323645B1, “USE OF LOW-DOSE LOCAL ANAESTHETIC OR DERIVATIVES THEREOF FOR THERAPY OF CHRONIC PAIN, ESPECIALLY MIGRAINE” (priority 2008, dated 2010).

Key:
[1] = system: Kopfschmerzen vom Spannungstyp; assay: Comparative trial of lidocaine, mepivacaine and bupivacaine in tension-type headache (infiltration anaesthesia C1 to C3); assay type: in vivo, Patienten; details: equipotent dilution 1:5 (Lidocain 0,1 Gew.-%, Bupivacain 0,05 Gew.-%, Mepivacain 0,1 Gew.-%), twice daily for 7 days, 3 male patients, 10-point pain scale
Kopfschmerzen = details: 0,5 %, cervical intramuscular injection; Mellick et al. 2006; cited from earlier work
spinaler Nozizeptoren = assay: Blockade of spinal nociceptors in healthy volunteers; assay type: in vivo, gesunden Probanden
Excerpt: Die Verabreichung des hier beschriebenen niedrig-dosierten Lidocains oder eines 3-OH-oder 4-OH-Derivats davon in den hier beschriebenen niederen Konzentrationen, z.B. in der erfindungsgemäßen pharmazeutischen Zusammensetzung, kann, insbesondere in der Migräne-Therapie, durch Infiltrations-Anästhesie stattfinden, bspw. durch gezielte, simultane Infiltrations-Anästhesien an der Schädelbasis (ventrale Äste von C1) sowie der ventralen Äste der Spinal-Nerven C2 und C3 unter Anwendung einer pharmakologisch und technisch ziel- und zweckoptimierten Methode. Unter Einsatz der erfindungsgemäßen pharmazeutischen Zusammensetzungen lassen sich die oben beschriebenen Migräne-Schmerzen sowie die Symptome einer vestibulären Dysfunktion - Übelkeit und Schwindel - unabhängig von der vorbestehenden Anfallsdauer einer Migräne spontan und definitiv abortieren. Die Konzentration des dafür verwendeten Lidocains oder eines 3-OH- oder 4-OH-Derivats davon in der erfindungsgemäßen pharmazeutischen Zusammensetzung ist bevorzugt so eingestellt, dass keine motorischen oder Sensibilitäts-Störungen auftreten.

Migräne = assay: Treatment of migraine by local deep paravertebral injection of low-dose lidocaine; assay type: in vivo, Patienten; details: 0,1 Gew.-% in Ringer solution, usually 2 to 4 injections per session; within a few minutes; complete freedom from pain and complaints without typical relapse tendency
Excerpt: (§1) Art und Umfang der beklagten Schmerzen und Beschwerden bestimmen unter (ausschließlich) neuroanatomischen und funktionspathologischen Gesichtspunkten die ursachenorientierte Auswahl von Injektionsort, Injektionsmenge und Injektionstiefe sowie die Auswahl der verwendeten Injektionskanülen, z.B. innerhalb einer Bandbreite zwischen 20 und 100 mm Länge, bei grundsätzlich identischer, jedoch gegenüber herkömmlicher Verfahrensweise grundlegend veränderter, Injektionstechnik (siehe z.B. Figuren 1 bis 3).
(§2) Vor Behandlungsbeginn werden mit Ausnahme von Benzodiazepinderivaten sämtliche "schmerz- und beschwerdespezifische" Medikamente spontan abgesetzt. Benzodiazepinderivate werden schleichend eliminiert.
Anzahl der Injektionen und Injektionsorte sind abhängig vom aktuellen Untersuchungsbefund sowie von Patientenangaben zu Schmerzen und Beschwerden. Bevorzugt werden tiefe paravertebrale Injektionen von dorsal in antero-lateraler Stichführung in Gewebe der oberen Halswirbelsäule (s. Figur 2) oder der oberen Brustwirbelsäule (s. Figur 1) vorgenommen, je Behandlungssitzung in der Regel 2 bis 4 Injektionen.
(s. Figur 2: Einstichpunkte im Bereich der oberen und mittleren Halswirbelsäule) • Ergebnis: Der Patient war nach 2 ½ Behandlungstagen und seither dauerhaft schmerz- und beschwerdefrei.

[2] = system: episodischer und chronischer Kopfschmerzen vom Spannungs-Typ; assay: Treatment of episodic and chronic tension-type headache; assay type: in vivo, Patienten
Excerpt: as §1, §2
Behandlung: Die Anzahl der Injektionen und Injektionsorte sind abhängig vom aktuellen Untersuchungsbefund sowie von Patientenangaben zu Schmerzen und Beschwerden. Bevorzugt werden tiefe paravertebrale Injektionen in Gewebe der oberen und mittleren Halswirbelsäule vorgenommen, je Behandlungssitzung in der Regel 6 bis 8 Injektionen mit gegenüber der vorbeschriebenen Migräne-Behandlung geringerer Einstichtiefe.

[3] = system: therapieresistenter chronischer Schulter-Arm-Schmerzen; assay: Treatment of therapy-resistant chronic shoulder-arm pain; assay type: in vivo, Patienten; details: 2 to 4 deep paravertebral injections, middle cervical spine, 0,1 Gew.-%
Excerpt: as §1
Behandlung: 2 bis 4 tiefe, seitengleiche paravertebrale Injektionen in Gewebe der mittleren Halswirbelsäule.

chronisches LWS-Syndrom = assay: Treatment of therapy-resistant chronic pain of hips, legs and feet (chronic lumbar spine syndrome); assay type: in vivo, Patienten; details: single case, patient, left-sided syndrome for 10 years, repetitive injections L3 to L5 left
Excerpt: as §1
Behandlung: 2 bis 4 tiefe, seitengleiche paravertebrale Injektionen in Gewebe der mittleren und unteren Lendenwirbelsäule bzw. der oberen Kreuzbeinregion (: L3 bis SI alternierend).
Aktueller Fall: • 71-jähriger Patient. Seit 10 Jahren progrediente Krankheitsentwicklung eines chronischen, linksseitigen LWS-Syndroms mit belastungsabhängigen Schmerzen und • Taubheitsgefühl in Oberschenkel und Knie sowie belastungsabhängigem, progredientem Kraftverlust des linken Beines. • Behandlung: Repetitive paravertebrale Injektionen L3 bis L5 links. • Ergebnis: Vollständige Remission aller Beschwerden nach 10 Behandlungssitzungen.

Trigeminusneuralgie = assay: Treatment of trigeminal neuralgia; assay type: in vivo, Patienten; details: superficial wide-area injection of the affected nerve branch; as a rule; rarely one or two repeat injections needed
Excerpt: as §1
Behandlung: Oberflächliche, großflächig ausgebrachte Injektion des betroffenen Nervenastes am Ort seiner stärksten Irritation;

Occipitalisneuralgie = assay: Treatment of occipital neuralgia; assay type: in vivo, Patienten
Excerpt: as §1
Behandlung: Je nach Untersuchungsbefund oberflächliche, großflächig ausgebrachte oder tiefe Injektionen des bzw. der betroffenen Nervenäste;

[4] = system: Menstruationsbeschwerden (Menorrhagien); details: as a rule after two to four further identical sessions
chronischer Verletzungen = assay: Treatment of chronic injuries
[5] = system: akuter kleinflächiger Verletzungen; assay: Treatment of acute small-area injuries
chronischer Migräne = assay: Retrospective analysis of 84 chronic migraine patients treated with repeated deep dorsal cervico-thoracic sympathetic blocks; details: for Rückgang aller Schmerzen und Begleitsymptome auf: end of treatment
[6] = system: Phantom- oder Stumpfschmerz; details: 0,1 - 1,0 ml of 1 % solution; Gross, Anaesthesist 1985; cited from earlier work
[7] = system: neuropathischen Schmerzen; details: 0.2 %, repeated epidural administration, rat model; Chiyo et al. 2008; cited from earlier work
Neuralgien = details: 5 %; Katsushi et al.; cited from earlier work

For CCCCN1CCCCC1C(=O)Nc1c(C)cccc1C (centres unmarked) [Bupivacain], the “Wirkung und Therapieeffekt gegenüber Lidocain” value [1] is listed as “etwa vergleichbare Wirkung und Therapieeffekt” and the Behandlungsergebnis (Kopfschmerzen) is listed as “erfolgreich behandelt”.
In the case of CCN(CC)CC(=O)Nc1c(C)cccc1C [Lidocain], the “Beeinträchtigung der Sensibilität” value (spinaler Nozizeptoren) is reported as “ohne Beeinträchtigung der Sensibilität”, the Anfallsdurchbrechung (Migräne) is reported as “vollständige Anfallsdurchbrechung” and the “Ergebnis der Repetition der Behandlung” value ([2]; repeated treatment, stepwise lengthening of pain-free intervals) is reported as “dauerhaften Schmerzfreiheit”. For the same molecule, the Sensibilitätsstörungen ([2]; typical case, 0,1 Gew.-%) was “ohne die von Injektionen mit herkömmlicher Lokalanästhetika-Konzentration bekannten Sensibilitätsstörungen”, the “Remission von Schmerzen und Beschwerden” value [3] was “Spontane Remission” and the “Vollständige Remission aller Beschwerden nach” value (chronisches LWS-Syndrom) was 10 Behandlungssitzungen. For the same molecule, the Ergebnis (Trigeminusneuralgie) was “Spontan-Remission”, the “Ergebnis Tiefe Nervenäste” value (Occipitalisneuralgie; deep nerve branches, repeat injections necessary) was “eher verzögert” and the “Ergebnis oberflächliche Nervenäste” value (Occipitalisneuralgie; superficial nerve branches, as a rule, rarely one or two repeat injections) was “Spontan-Remission”. The “Blutungsmenge und Blutungsdauer” value [4] was “vollständige Normalisierung”, the Sensibilitätsstörungen (chronischer Verletzungen; in vivo) was “ohne Sensibilitätsstörungen” and the Remission (chronischer Verletzungen; multiple repetition at 24-hour intervals) was “schrittweisen und i.d.R. vollständigen Remission”. For the same molecule, the Schmerzreduktion (chronischer Verletzungen; targeted injections into the traumatised tissue) was “spontane Schmerzreduktion”, the Sensibilitätsstörungen ([5]; in vivo) was “ohne Sensibilitätsstörungen” and the “(Wund-)Heilungsdauer” value ([5]; one or two repetitions at 24-hour intervals, as a rule) was “Halbierung der sonst üblichen (Wund-)Heilungsdauer”. For the same molecule, the Schmerzfreiheit ([5]; superficial injections into the traumatised tissue) was “spontane Schmerzfreiheit”, the “Rückgang aller Schmerzen und Begleitsymptome auf” value (chronischer Migräne; 4-week treatment group (n=21)) was 3,2% and the “Rückgang aller Schmerzen und Begleitsymptome auf” value (chronischer Migräne; 5-week treatment group (n=43)) was 1,1%. For the same molecule, the “Rückgang aller Schmerzen und Begleitsymptome auf” value (chronischer Migräne; 6-week treatment group (n=20)) was 1,0%, the “lang anhaltender therapeutischer Effekt” value (chronischer Migräne; after end of the treatment period, together with instructions on posture and lifestyle) was “mindestens einigen Jahren” and the “Rückgang der Gesamtsummen aller Schmerz-Intensitäten und Migräne-Begleitsymptome auf” value (chronischer Migräne; end of first week, all treatment periods of 4, 5 or 6 weeks, relative to last severe attack without medication, twice daily) was < 10%. The “Kopfschmerzen vom Spannungs-Typ” value (chronischer Migräne; patients with concomitant tension-type headache) was “schrittweise bis zum Ende jeder Behandlungs-Periode beseitigt” and the Allgemeinbefinden (chronischer Migräne; under treatment) was “positive Zunahme”.
For Cc1cccc(C)c1NC(=O)C1CCCCN1C (centres unmarked) [Mepivacain], the “Wirkung und Therapieeffekt gegenüber Lidocain” value [1] is listed as “etwa vergleichbare Wirkung und Therapieeffekt” and the “Patienten nachweisbar effektiv behandelt” value [6] is listed as “ca. 80%”.
In the case of CCCN1CCCC[C@H]1C(=O)Nc1c(C)cccc1C [Ropivacain], the “analgetischer Effekt” value [7] is listed as “lang anhaltenden analgetischen Effekt”.
For CCCCNc1ccc(C(=O)OCCN(C)C)cc1 [Tetracain], the Behandlungsergebnis (Neuralgien) is listed as “effektive Behandlung”.
